Data: PMC4701504, “Immunogenicity of HLA Class I and II Double Restricted Influenza A-Derived Peptides” (PLoS ONE, 2016)
Like-named read-outs stand apart in the source and are kept apart here. Where a SMILES comes first, the peptide text is derived from it.

Tests used:
[1] = molecular target: recombinant HLA-DRA*01:01/DRB1*01:01 molecules (Homo sapiens, UniProt P01903+P01911, A100R/D57E/F55L/F60I/F76Y/I96L/L162R/M171V/P40L/Q125E/R42F/V115G/Y59C); experiment: biochemical; assay type: binding
[2] = molecular target: HLA-A*02:01 (Homo sapiens, UniProt P04439, D140Y/D185E/D98H/E176V/E277Q/G131W/G231S/I119V/I121R/I166T/I218V/L300P/L318F/N151K/N90K/P208A/P217A/Q86G/Q94H/R138H/R169H/T345S); experiment: biochemical; assay type: binding
[3] = test system: CD8 and CD4 T cells of HLA-A*02:01/HLA-DRB1*01:01 transgenic mice; assay type: in vivo; design: key: I, CD8 response; II, CD4 response; -,no response; conditions: CAF09 + 20 nmol peptide i.p. three times at two week intervals; IFNγ ELISpot one week after last immunization (Fig 1)
[4] = […], peptide concentration at half-saturation as approximation of KD, read-out: HLA-A*02:01 Measured
[5] = read-out: HLA-DRB1*01:01 Measured

Q: `CC(C)C[C@H](NC(=O)[C@H](CCCCN)NC(=O)[C@H](CC(C)C)NC(=O)[C@@H](NC(=O)[C@H](CC(N)=O)NC(=O)[C@H](CCC(N)=O)NC(=O)[C@H](CCCCN)NC(=O)[C@@H](NC(=O)[C@H](Cc1ccc(O)cc1)NC(=O)[C@H](CCCCN)NC(=O)[C@@H](N)Cc1ccc(O)cc1)C(C)C)[C@@H](C)O)C(=O)N[C@@H](C)C(=O)N[C@H](C(=O)N[C@@H](Cc1c[nH]cn1)C(=O)N[C@@H](Cc1c[nH]cn1)C(=O)N[C@@H](Cc1c[nH]cn1)C(=O)N[C@@H](Cc1c[nH]cn1)C(=O)N[C@@H](Cc1c[nH]cn1)C(=O)N[C@@H](Cc1c[nH]cn1)C(=O)O)[C@@H](C)O` [Reference peptide, reference compound] (H-YKYVKQNTLKLATHHHHHH-OH) was tested. Which Kd [1] did it give?
A: Its Kd is 8 nM.

Q: `CC[C@H](C)[C@H](NC(=O)[C@@H]1CCCN1C(=O)[C@H](Cc1ccc(O)cc1)NC(=O)[C@H](CCCCN)NC(=O)[C@H](CCSC)NC(=O)[C@H](C)NC(=O)[C@H](CCSC)NC(=O)[C@H](CCSC)NC(=O)[C@@H](N)Cc1c[nH]c2ccccc12)C(=O)N[C@H](C(=O)N[C@@H](C)C(=O)O)[C@@H](C)O` [PB2(49–59)] (H-WMMAMKYPITA-OH) was tested. Which Kd [2, 4] did it give?
A: Its Kd is 75 nM.

Q: And the Kd [1, 5]?
A: The Kd was 528 nM.

Q: With `CSCC[C@H](NC(=O)CNC(=O)[C@H](CCSC)NC(=O)[C@@H](N)CCSC)C(=O)N[C@@H](Cc1ccccc1)C(=O)N[C@@H](CC(N)=O)C(=O)N[C@@H](CCSC)C(=O)N[C@@H](CC(C)C)C(=O)N[C@@H](CO)C(=O)N[C@H](C(=O)N[C@H](C(=O)O)C(C)C)[C@@H](C)O` [PB1(408–418)] (H-MMGMFNMLSTV-OH) as the compound, how does the Kd [2, 4] read?
A: Its Kd is 51 nM.

Q: And the Kd [1, 5]?
A: The Kd was 172 nM.

Q: Which Kd [2, 4] does the source give for `CSCC[C@H](NC(=O)[C@@H](N)CC(N)=O)C(=O)N[C@@H](CC(C)C)C(=O)N[C@@H](CO)C(=O)N[C@H](C(=O)N[C@H](C(=O)N[C@@H](CC(C)C)C(=O)NCC(=O)N[C@H](C(=O)O)C(C)C)C(C)C)[C@@H](C)O` [PB1(413–421)] (H-NMLSTVLGV-OH) here?
A: The Kd was 16 nM.

Q: And the Kd [1, 5]?
A: Its Kd is greater than 5000 nM.

Q: For `CC[C@H](C)[C@H](NC(=O)[C@@H]1CCCN1C(=O)[C@H](Cc1ccc(O)cc1)NC(=O)[C@H](CCCCN)NC(=O)[C@H](CCSC)NC(=O)[C@H](C)NC(=O)[C@H](CCSC)NC(=O)[C@H](CCSC)NC(=O)[C@@H](N)Cc1c[nH]c2ccccc12)C(=O)O` [PB2(49–57)] (H-WMMAMKYPI-OH), which Kd [2, 4] is on record?
A: The Kd was 36 nM.

Q: And the Kd [1, 5]?
A: Its Kd is greater than 5000 nM.

Q: Which results are given for `CSCC[C@H](NC(=O)[C@@H](N)Cc1ccccc1)C(=O)N[C@@H](CCC(N)=O)C(=O)N[C@@H](C)C(=O)N[C@@H](CC(C)C)C(=O)N[C@@H](Cc1c[nH]cn1)C(=O)N[C@@H](CC(C)C)C(=O)N[C@@H](CC(C)C)C(=O)N[C@@H](CC(C)C)C(=O)O` [NS2(99–107)] (H-FMQALHLLL-OH)?
A: Kd [2, 4]: 13 nM; Kd [1, 5]: > 5000 nM

Q: With `CSCC[C@H](NC(=O)[C@@H](N)CCCNC(=N)N)C(=O)NCC(=O)N[C@@H](C)C(=O)N[C@H](C(=O)N[C@H](C(=O)N[C@H](C(=O)N[C@@H](CCC(=O)O)C(=O)N[C@H](C(=O)O)C(C)C)[C@@H](C)O)[C@@H](C)O)C(C)C` [M(134–142)] (H-RMGAVTTEV-OH) as the compound, how does the Kd [2] read?
A: Its Kd is 133 nM.

Q: And the Kd [1, 5]?
A: The Kd was greater than 5000 nM.

Q: How did the Kd [2, 4] turn out when `CSCC[C@H](NC(=O)CNC(=O)[C@H](CCSC)NC(=O)[C@H](CCSC)NC(=O)[C@@H](N)CCSC)C(=O)N[C@@H](Cc1ccccc1)C(=O)N[C@@H](CC(N)=O)C(=O)N[C@@H](CCSC)C(=O)N[C@@H](CC(C)C)C(=O)N[C@@H](CO)C(=O)N[C@H](C(=O)O)[C@@H](C)O` [PB1(407–417)] (H-MMMGMFNMLST-OH) was run?
A: Its Kd is 36 nM.

Q: And the Kd [1, 5]?
A: Its Kd is 315 nM.

Q: Which Kd [2, 4] does the source give for `CSCC[C@H](NC(=O)[C@H](CO)NC(=O)[C@H](CCC(=O)O)NC(=O)[C@H](CCSC)NC(=O)[C@@H](NC(=O)[C@H](CC(=O)O)NC(=O)[C@H](CCCCN)NC(=O)[C@H](CC(C)C)NC(=O)[C@@H](N)Cc1ccccc1)C(C)C)C(=O)O` [PB1(166–174)] (H-FLKDVMESM-OH) here?
A: The Kd was 51 nM.

Q: What about the Kd [1] of the same compound?
A: The Kd was greater than 5000 nM.

Q: `CSCC[C@H](NC(=O)CN)C(=O)N[C@@H](Cc1ccccc1)C(=O)N[C@@H](CC(N)=O)C(=O)N[C@@H](CCSC)C(=O)N[C@@H](CC(C)C)C(=O)N[C@@H](CO)C(=O)N[C@H](C(=O)N[C@H](C(=O)N[C@@H](CC(C)C)C(=O)O)C(C)C)[C@@H](C)O` [PB1(410–419)] (H-GMFNMLSTVL-OH) was tested. Which Kd [2, 4] did it give?
A: The Kd was 384 nM.

Q: What about the Kd [1, 5] of the same compound?
A: The Kd was 29 nM.

Q: What does the source list for LLQNSQVYS [NP(306–315)]?
A: Kd ([1]; pH 7, read-out: HLA-DRB1*01:01 Measured): > 5000 nM; Response: type of immune response, CD4 (second symbol) [3]: -

Q: With `CC[C@H](C)[C@H](NC(=O)[C@@H]1CCCN1C(=O)[C@H](CCCNC(=N)N)NC(=O)[C@@H](NC(=O)[C@H](CCCCN)NC(=O)[C@H](CC(C)C)NC(=O)[C@H](Cc1c[nH]c2ccccc12)NC(=O)[C@H](CCC(=O)O)NC(=O)[C@H](CCSC)NC(=O)[C@H](CC(C)C)NC(=O)[C@@H](N)C(C)C)[C@@H](C)O)C(=O)O` [M(41–51)] (H-VLMEWLKTRPI-OH) as the compound, how does the Kd [2, 4] read?
A: The Kd was 101 nM.

Q: What about the Kd [1, 5] of the same compound?
A: Its Kd is 119 nM.

Q: What does the source list for `CSCC[C@H](NC(=O)CN)C(=O)N[C@@H](Cc1ccccc1)C(=O)N[C@@H](CC(N)=O)C(=O)N[C@@H](CCSC)C(=O)N[C@@H](CC(C)C)C(=O)N[C@@H](CO)C(=O)N[C@H](C(=O)N[C@H](C(=O)O)C(C)C)[C@@H](C)O` [PB1(410–418)] (H-GMFNMLSTV-OH)?
A: Kd [2, 4]: 23 nM; Kd [1, 5]: 34 nM

Q: With `CC[C@H](C)[C@H](NC(=O)[C@H](CO)NC(=O)[C@H](CC(C)C)NC(=O)[C@H](CCCCN)NC(=O)[C@H](CC(C)C)NC(=O)[C@H](C)NC(=O)[C@H](CC(=O)O)NC(=O)[C@H](CCSC)NC(=O)[C@H](CC(C)C)NC(=O)[C@H](CC(C)C)NC(=O)[C@@H](N)Cc1ccccc1)C(=O)O` [PA(282–292)] (H-FLLMDALKLSI-OH) as the compound, how does the Kd [2, 4] read?
A: Its Kd is 24 nM.

Q: What about the Kd [1, 5] of the same compound?
A: Its Kd is 23 nM.

Q: What does the source list for `CC[C@H](C)[C@H](NC(=O)[C@H](CC(C)C)NC(=O)[C@@H](N)Cc1ccc(O)cc1)C(=O)N[C@@H](CCCNC(=N)N)C(=O)N[C@@H](C)C(=O)N[C@@H](CC(C)C)C(=O)N[C@H](C(=O)N[C@@H](CC(C)C)C(=O)N[C@@H](CC(N)=O)C(=O)N[C@H](C(=O)N[C@@H](CCSC)C(=O)O)[C@@H](C)O)[C@@H](C)O` [PB1(217–227)] (H-YLIRALTLNTM-OH)?
A: Kd [2, 4]: 46 nM; Kd [1, 5]: 76 nM

Q: What does the source list for `CC[C@H](C)[C@H](NC(=O)CNC(=O)[C@@H](NC(=O)[C@H](CC(C)C)NC(=O)[C@@H](N)CO)C(C)C)C(=O)N[C@@H](CC(=O)O)C(=O)N1CCC[C@H]1C(=O)N[C@@H](Cc1ccccc1)C(=O)N[C@@H](CCCNC(=N)N)C(=O)N[C@@H](CC(C)C)C(=O)O` [NP(297–306)] (H-SLVGIDPFRL-OH)?
A: Kd [2, 4]: 70 nM; Kd [1]: 460 nM

Q: How did the Kd [2, 4] turn out when `CC[C@H](C)[C@H](N)C(=O)N[C@H](C(=O)N[C@@H](CC(C)C)C(=O)N[C@@H](CCCCN)C(=O)N[C@@H](C)C(=O)N[C@@H](CC(N)=O)C(=O)N[C@@H](Cc1ccccc1)C(=O)N[C@@H](CO)C(=O)N[C@H](C(=O)O)C(C)C)[C@@H](C)CC` [NS1(128–136)] (H-IILKANFSV-OH) was run?
A: The Kd was 45 nM.

Q: And the Kd [1, 5]?
A: The Kd was greater than 5000 nM.

Q: `CC[C@H](C)[C@H](NC(=O)[C@H](CCSC)NC(=O)[C@H](C)NC(=O)[C@H](CC(C)C)NC(=O)[C@@H](N)Cc1ccccc1)C(=O)N[C@H](C(=O)N[C@@H](Cc1ccc(O)cc1)C(=O)N[C@@H](CCSC)C(=O)N[C@H](C(=O)O)[C@@H](C)O)[C@@H](C)O` [PB1(318–326)] (H-FLAMITYMT-OH) was tested. Which Kd [2, 4] did it give?
A: The Kd was 253 nM.

Q: What about the Kd [1, 5] of the same compound?
A: The Kd was 557 nM.

Q: `CC[C@H](C)[C@H](NC(=O)[C@H](CC(C)C)NC(=O)[C@H](C)NC(=O)[C@H](CO)NC(=O)[C@H](CCCNC(=N)N)NC(=O)[C@H](C)NC(=O)[C@H](CC(C)C)NC(=O)[C@@H](N)Cc1ccccc1)C(=O)N[C@@H](CC(C)C)C(=O)O` [NP(258–266)] (H-FLARSALIL-OH) was tested. Which Kd [2] did it give?
A: The Kd was 0.9 nM.

Q: What about the Kd [1, 5] of the same compound?
A: Its Kd is 97 nM.
